Measurements published in paper PMC6222780, “Synthesis, Spectroscopic Analysis and Assessment of the Biological Activity of New Hydrazine and Hydrazide Derivatives of 3-Formylchromone” (Molecules : A Journal of Synthetic Chemistry and Natural …, 2018).

Experiments:
[1] = system: EA.hy926 cell line (the human umbilical vein, somatic cell hybrid); assay: XTT assay, cell proliferation study; format: cell-based; conditions: for IC50 / The Range of Influence [%, Control = 100%] / Stimulating effect on proliferation: EA.hy926, XTT; for IC50: 24 h incubation, 0.01–1250 µmol/L; for The Range of Influence [%, Control = 100%]: viability over 0.01–1250 µmol/L; for Selectivity of action (IC50 EA.hy926 versus L929): IC50 lower for EA.hy926 than for L929
Procedure: (§1) Four independent experiments (n = 4 for each used concentration) were performed. […] This indicates good or very good (in the case of 1, 3, 5, 8, 11) selectivity of action. […] Due to the dual action of these compounds, it would be advisable to study their effect on stimulation of proliferation at concentrations below 0.01 μmol/L. This dual action may be desirable during therapy, because the dosage may affect the nature of the compounds.
The EA.hy926 cell line (the human umbilical vein, somatic cell hybrid, American Type Culture Collection, Manassas, VA, USA) was used to evaluate the cytotoxicity of novel compounds. Cells were grown in Dulbecco’s Modified Eagle’s Medium (DMEM) which contains 10% of Fetal Bovine Serum (Biowest), 2 mmol/L glutamine (Sigma-Aldrich) and 100 units/mL penicillin with […] streptomycin (Biological Industries). Cells were plated and grown in an incubator at 37 °C with 5% CO2 to 80% confluence before the initiation of the assay.
(§2) The XTT assay was used to evaluate cell metabolic activity. […] The number of viable cells is correlated with the colour intensity determined by photometric measurements. XTT (Serva, Heidelberg, Germany) was dissolved in MEM without phenol red (PAN-Biotech, Aidenbach, Germany) or DMEM without phenol red (PAN-Biotech) at a concentration of 1 mg/mL. Phenazine metosulphate (PMS) (Serva) was dissolved in phosphate-buffered saline (PBS, 5 mmol/L). PMS solution was then added to the XTT solution at a concentration of 25 μM. Investigated compounds were dissolved in dimethyl sulfoxide (DMSO) to obtain stock solutions.
(§3) L929 and EA.hy926 cells were seeded into 96-well plates at a density of 1 × 10^4 cells per well. They were cultured for 24 h in the incubator (37 °C and 5% CO2). After that time, the medium was removed. Then the 100 µL of medium containing investigated compounds (in the range of concentration 0.01–1250 µmol/L) or only culture medium (blank control) were added. Cisplatin was used as a reference compound. Cells were further incubated for 24 h. At the third day, the old medium were removed and cells were washed with PBS. 100 µL of culture medium with the additional 50 µL of the XTT/PMS solution were added to each well. Plates were incubated in the dark for 3 h at 37 °C. Then, the plates were swayed and an aliquot of 100 µL from each well was transferred into the corresponding well of a new plate. Finally, the absorbance was measured by using the microplate reader (Synergy H1, BioTek, Winooski, VT, USA) at a wavelength of 450 nm. The cell viability was expressed as a percentage of the control values (blanks).

[2] = system: L929 cell line (mouse fibroblast cell line); assay: XTT assay, cell proliferation study; format: cell-based; conditions: for IC50 / The Range of Influence [%, Control = 100%] / Stimulating effect on proliferation: L929, XTT; for IC50: 24 h incubation, 0.01–1250 µmol/L; for The Range of Influence [%, Control = 100%]: viability over 0.01–1250 µmol/L
Procedure: as §1
The mouse fibroblast cell line L929 (Sigma-Aldrich) was grown in MEM (Minimum Essential Medium) (Biowest, Nuaillé, France) containing 10% of Fetal Bovine Serum (Biowest), 1 mmol/L sodium pyruvate (Biological Industries, Cromwell, CT, USA), 0.5 mmol/L non-essential amino acids (Sigma-Aldrich) and 100 units/mL penicillin with […] streptomycin (Biological Industries) in an incubator at 37 °C with 5% CO2. Cells were plated and grown to 80% confluence before the initiation of the assay.
as §2, §3

[3] = system: Streptococcus pneumoniae ATCC 49619; assay: Disc diffusion, inhibition of growth zones; format: cell-based; conditions: S. pneumoniae; discs at 100 or 200 µg/mL, 24 h at 37 °C
Procedure: (§4) Fifteen strains of microorganisms from different species were used. The growth inhibition zones were evaluated in two independent experiments (n = 2 in each of them), and the potential inhibitors of microbial growth are presented in Table 3. The hydrazine and hydrazide derivatives of 3-formylchromone constitute a class of potential antimicrobial agents and are worthy of further investigation. […] In case of N. meningitidis (result with *) the action of 9 was noted just for 100 µg/mL and the influence in concentration of 200 µg/mL was not observed.
(§5) The microbial reference strains representing different families of bacteria and fungi, pathogenic for man and animals, were used. The 15 strains were derived from international microbial collections held by the Department of Pharmaceutical Microbiology and Microbiological Diagnostics of the Medical University of Lodz: Candida albicans ATCC 10231, Enterococcus faecalis ATCC 29212, Klebsiella pneumoniae ATCC 700603, Pseudomonas aeruginosa NCTC 6749, Proteus vulgaris CCM 1799, Staphylococcus epidermidis ATCC 12228, Shigella flexneri ATCC 12022, Streptococcus pneumoniae ATCC 49619, Streptococcus pyogenes ATCC 19615, Corynebacterium jeikeium K411, Escherichia coli ATCC 25922, Staphylococcus aureus NCTC 4135, Streptococcus dysgalactiae subsp. equisimilis ATCC 12394, Neisseria meningitidis DSM 25942, Listeria monocytogenes PCM 2191.
(§6) The strains were stored at −80 °C, frozen in a 1:1 mixture of Brain Heart Infusion (BHI) broth and glycerol. The reference strains, depending on the growth requirements, were grown on a solid medium—nutrient agar, nutrient agar with 5% addition of lambs defibrinated blood or (in the case of Corynebacterium jeikeium) Triptic Soy Agar (TSA) with the addition of sheep blood, yeast extract and Tween-80. The susceptibility of the strains to chemical compounds was measured analogously to the adopted method of diffusion and disc preparation of antibiotics for compounds introduced into treatment. After receiving the pure culture of the reference strain, obtained from frozen samples and grown on the appropriate medium for growth requirements, suspensions of the tested strains were prepared in a physiological NaCl solution with a density of 0.5 on the McFarland scale. These suspensions were seeded with a cotton ball over the entire surface of the test medium. Discs impregnated with the test compound at a concentration of 100 or 200 µg/mL were then placed on it and incubated for 24 h at 37 °C.

[4] = system: Fifteen strains of microorganisms from different species; assay: Initial antimicrobial screening by disc diffusion on the whole panel; format: cell-based; conditions: 15 strains, discs at 100 or 200 µg/mL
Procedure: as §4, §5, §6

[5] = system: Staphylococcus epidermidis ATCC 12228; assay: Disc diffusion, inhibition of growth zones; format: cell-based; conditions: S. epidermidis; discs at 100 or 200 µg/mL, 24 h at 37 °C
Procedure: as §4, §5, §6

[6] = system: Neisseria meningitidis DSM 25942; assay: Disc diffusion, inhibition of growth zones; format: cell-based; conditions: N. meningitidis
Procedure: as §4, §5, §6

[7] = system: Streptococcus pyogenes ATCC 19615; assay: Disc diffusion, inhibition of growth zones; format: cell-based; conditions: S. pyogenes; discs at 100 or 200 µg/mL, 24 h at 37 °C
Procedure: as §4, §5, §6

[8] = system: Staphylococcus aureus NCTC 4135; assay: Disc diffusion, inhibition of growth zones; format: cell-based; conditions: S. aureus; discs at 100 or 200 µg/mL, 24 h at 37 °C
Procedure: as §4, §5, §6

Compound: N.N.[Cl][Pt][Cl] [Cisplatin, reference compound]
- IC50 [1]: 67.4 µM
- The Range of Influence [%, Control = 100%] [1]: 8.71–75.14%
- IC50 [2]: 74.4 µM
- The Range of Influence [%, Control = 100%] [2]: 8.49–55.70%

Compound: O=c1c(C=NNc2cc(F)ccc2F)coc2ccccc12 [Compound 1, 3-[(2,5-Difluorophenyl)-hydrazonomethyl]-chromen-4-one]
- Stimulating effect on proliferation [1]: weak stimulating effect
- IC50 [1]: 59.1 µM
- The Range of Influence [%, Control = 100%] [1]: 14.79–106.26%
- Selectivity of action (IC50 EA.hy926 versus L929) [1]: very good
- Stimulating effect on proliferation [2]: weak stimulating effect
- IC50 [2]: 209 µM
- The Range of Influence [%, Control = 100%] [2]: 27.64–101.8%
- Inhibition of growth zones (lowest effective studied concentration) [3]: 100 µg/mL
- Inhibition of microbial growth (result in words) [4]: exhibit antimicrobial potential

Compound: O=c1c(C=NNc2ccc(C(F)(F)F)cc2)coc2ccccc12 [Compound 3, 3-[(4-Trifluoromethylphenyl)-hydrazonomethyl]-chromen-4-one]
- Stimulating effect on proliferation [1]: slightly stimulated
- IC50 [1]: 975 µM
- The Range of Influence [%, Control = 100%] [1]: 37.40–101.33%
- Selectivity of action (IC50 EA.hy926 versus L929) [1]: very good
- The Range of Influence [%, Control = 100%] [2]: 55.91–96.98%
- Inhibition of microbial growth (result in words) [4]: not able to inhibit microbial growth

Compound: O=c1c(C=NNc2cc(C(F)(F)F)cc(C(F)(F)F)c2)coc2ccccc12 [Compound 4, 3-[(3,5-Bis-trifluoromethylphenyl)-hydrazonomethyl]-chromen-4-one]
- Stimulating effect on proliferation [1]: weak stimulating effect
- IC50 [1]: 534 µM
- The Range of Influence [%, Control = 100%] [1]: 28.46–102.18%
- Stimulating effect on proliferation [2]: weak stimulating effect
- IC50 [2]: 1030 µM
- The Range of Influence [%, Control = 100%] [2]: 45.61–101.31%
- Inhibition of growth zones (lowest effective studied concentration) [5]: 100 µg/mL
- Inhibition of microbial growth (result in words) [4]: exhibit antimicrobial potential

Compound: O=C(N/N=C/c1coc2ccccc2c1=O)c1ccc(F)cc1 [Compound 5, 4-Fluorobenzoic acid [1-(4-oxo-4H-chromen-3-yl)-meth-(E)-ylidene]-hydrazide]
- melting point: 201 to 202 °C
- The Range of Influence [%, Control = 100%] [1]: 11.81–60.64%
- Selectivity of action (IC50 EA.hy926 versus L929) [1]: very good
- The Range of Influence [%, Control = 100%] [2]: 16.03–56.35%
- IC50 ([2]; Mus musculus): 65.9 µM
- Inhibition of microbial growth (result in words) [4]: not able to inhibit microbial growth

Compound: O=c1c(C=NNc2c(F)c(F)cc(F)c2F)coc2ccccc12 [Compound 6, 3-[(2,3,5,6-Tetrafluorophenyl)-hydrazonomethyl]-chromen-4-one]
- IC50 [1]: 578 µM
- The Range of Influence [%, Control = 100%] [1]: 24.47–97.86%
- IC50 [2]: 728 µM
- The Range of Influence [%, Control = 100%] [2]: 40.05–93.11%
- Inhibition of microbial growth (result in words) [4]: not able to inhibit microbial growth

Compound: Cc1ccc(F)cc1NN=Cc1coc2ccccc2c1=O [Compound 7, 3-[(5-Fluoro-2-methylphenyl)-hydrazonomethyl]-chromen-4-one]
- Stimulating effect on proliferation [1]: slightly stimulated
- IC50 [1]: 953 µM
- The Range of Influence [%, Control = 100%] [1]: 42.43–101.05%
- IC50 [2]: 954 µM
- The Range of Influence [%, Control = 100%] [2]: 44.89–96.11%
- Inhibition of growth zones (lowest effective studied concentration) [5]: 100 µg/mL
- Inhibition of microbial growth (result in words) [4]: exhibit antimicrobial potential

Compound: O=c1c(C=NNc2c(F)cc(F)cc2F)coc2ccccc12 [Compound 8, 3-[(2,4,6-Trifluorophenyl)-hydrazonomethyl]-chromen-4-one]
- IC50 [1]: 18.1 µM
- The Range of Influence [%, Control = 100%] [1]: 23.31–63.94%
- Selectivity of action (IC50 EA.hy926 versus L929) [1]: very good
- IC50 [2]: 98.5 µM
- The Range of Influence [%, Control = 100%] [2]: 38.11–64.40%
- Inhibition of microbial growth (result in words) [4]: not able to inhibit microbial growth

Compound: O=c1c(C=NNc2c(F)c(F)c(F)c(F)c2F)coc2ccccc12 [Compound 9, 3-(Pentafluorophenyl-hydrazonomethyl)-chromen-4-one]
- IC50 [1]: 253 µM
- The Range of Influence [%, Control = 100%] [1]: 13.15–69.88%
- IC50 [2]: 386 µM
- The Range of Influence [%, Control = 100%] [2]: 13.92–85.11%
- Influence on growth at 200 µg/mL ([6]; disc at 200 µg/mL): not observed
- Inhibition of growth zones (lowest effective studied concentration) ([6]; discs at 100 or 200 µg/mL, 24 h at 37 °C): 100 µg/mL
- Inhibition of microbial growth (result in words) [4]: exhibit antimicrobial potential

Compound: O=c1c(C=NNc2ccccc2C(F)(F)F)coc2ccccc12 [Compound 10, 3-[(2-Trifluoromethylphenyl)-hydrazonomethyl]-chromen-4-one]
- IC50 [1]: 645 µM
- The Range of Influence [%, Control = 100%] [1]: 31.21–94.69%
- IC50 [2]: 1210 µM
- The Range of Influence [%, Control = 100%] [2]: 48.62–73.47%
- Inhibition of growth zones (lowest effective studied concentration) [5]: 100 µg/mL
- Inhibition of microbial growth (result in words) [4]: exhibit antimicrobial potential

Compound: Complex of 4-Fluorobenzoic acid [1-(4-oxo-4H-chromen-3-yl)-meth-(E)-ylidene]-hydrazide with Cu (II) [Compound 11]
- The Range of Influence [%, Control = 100%] [1]: 8.58–53.23%
- IC50 value lower than ligand 5 ([1]; EA.hy926, complex 11 compared with ligand 5): 77.78%
- Selectivity of action (IC50 EA.hy926 versus L929) [1]: very good
- IC50 [2]: 35 µM
- The Range of Influence [%, Control = 100%] [2]: 10.30–75.02%
- IC50 value lower than ligand 5 ([2]; L929, complex 11 compared with ligand 5): 46.89%
- Inhibition of growth zones (lowest effective studied concentration) [7]: 200 µg/mL
- Inhibition of growth zones (lowest effective studied concentration) [5]: 100 µg/mL
- Inhibition of growth zones (lowest effective studied concentration) [8]: 100 µg/mL
- Inhibition of microbial growth (result in words) [4]: exhibit antimicrobial potential
